Test results as given in patent US12473262B2, “Aryl hydrocarbon receptor activators” (Oregon State University, priority 2019, dated 2025).

Biological target: aryl hydrocarbon receptor (AhR) (Mus musculus (Mouse), UniProt P30561)
Assay: AhR ligand screening: AhRE-luciferase reporter in transfected Hepa1 cells
Type: cell-based
Details: for Fold @ 1 nM: fold change of luciferase expression at 1 nM test compound relative to vehicle (0.1% DMSO); for Fold @ 100 nM: fold change of luciferase expression at 100 nM test compound relative to vehicle (0.1% DMSO); for Fold @ 10 uM: fold change of luciferase expression at 10 uM test compound relative to vehicle (0.1% DMSO); for Fold relative to benchmark @ 100 nM: luciferase expression at 100 nM test compound relative to 100 nM benchmark compound 11-cl-BBQ
From the text: The AhR is a ligand-activated transcription factor that dimerizes with ARNT to regulate gene expression, and genes that are regulated by AhR ligands have AhR response elements (AhRE) in their promotor regions.
Briefly, Hepa1 cells were transfected with a reporter construct consisting of AhRE linked to luciferase. The addition of AhR ligands to the transfected cells induces luciferase production that is directly proportional to the amount of AhR activation. We used this reporter system to identify novel compounds with AhR-activating properties. Transfected Hepa1 cells were plated at a density of 1×10^4 cells/well in 100 μL of cell culture media in 96 well plates and grown overnight. […] Following incubation with the compounds, the media was removed, and cells were harvested with lysis buffer. The lysates were transferred to opaque 96 well plates, where they were assayed well-by-well for luciferase activity by injection of luciferase assay substrate with a 2 sec mixing time and 15 sec integration period on a Tropix TR717 microplate luminometer. Data were expressed as fold induction of luciferase relative to vehicle (0.1% DMSO) treated cells.

Chain of aryl hydrocarbon receptor (AhR) (P30561 10-805): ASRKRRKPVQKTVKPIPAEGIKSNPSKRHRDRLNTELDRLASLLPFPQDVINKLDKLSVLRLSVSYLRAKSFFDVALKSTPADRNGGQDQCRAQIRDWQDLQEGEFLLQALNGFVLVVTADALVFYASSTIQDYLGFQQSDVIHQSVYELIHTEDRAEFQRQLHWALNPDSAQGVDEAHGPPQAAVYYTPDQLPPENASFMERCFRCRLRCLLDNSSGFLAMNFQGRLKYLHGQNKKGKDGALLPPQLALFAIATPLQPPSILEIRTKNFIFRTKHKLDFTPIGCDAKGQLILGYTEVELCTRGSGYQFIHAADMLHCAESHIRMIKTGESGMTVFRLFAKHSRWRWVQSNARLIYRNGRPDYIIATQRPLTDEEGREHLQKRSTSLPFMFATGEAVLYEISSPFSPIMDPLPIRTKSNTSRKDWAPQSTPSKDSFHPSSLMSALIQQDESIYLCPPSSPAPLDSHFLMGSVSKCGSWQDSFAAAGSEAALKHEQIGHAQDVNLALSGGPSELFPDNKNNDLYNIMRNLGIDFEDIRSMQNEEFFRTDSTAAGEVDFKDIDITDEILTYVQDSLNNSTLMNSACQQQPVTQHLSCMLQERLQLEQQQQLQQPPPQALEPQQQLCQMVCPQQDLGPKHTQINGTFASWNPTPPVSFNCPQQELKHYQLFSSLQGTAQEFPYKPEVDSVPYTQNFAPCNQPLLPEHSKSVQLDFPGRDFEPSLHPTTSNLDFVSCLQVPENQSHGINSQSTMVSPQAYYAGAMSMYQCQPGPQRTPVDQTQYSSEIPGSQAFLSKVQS
Chain of aryl hydrocarbon receptor (AhR) (P53762 whole entry partner): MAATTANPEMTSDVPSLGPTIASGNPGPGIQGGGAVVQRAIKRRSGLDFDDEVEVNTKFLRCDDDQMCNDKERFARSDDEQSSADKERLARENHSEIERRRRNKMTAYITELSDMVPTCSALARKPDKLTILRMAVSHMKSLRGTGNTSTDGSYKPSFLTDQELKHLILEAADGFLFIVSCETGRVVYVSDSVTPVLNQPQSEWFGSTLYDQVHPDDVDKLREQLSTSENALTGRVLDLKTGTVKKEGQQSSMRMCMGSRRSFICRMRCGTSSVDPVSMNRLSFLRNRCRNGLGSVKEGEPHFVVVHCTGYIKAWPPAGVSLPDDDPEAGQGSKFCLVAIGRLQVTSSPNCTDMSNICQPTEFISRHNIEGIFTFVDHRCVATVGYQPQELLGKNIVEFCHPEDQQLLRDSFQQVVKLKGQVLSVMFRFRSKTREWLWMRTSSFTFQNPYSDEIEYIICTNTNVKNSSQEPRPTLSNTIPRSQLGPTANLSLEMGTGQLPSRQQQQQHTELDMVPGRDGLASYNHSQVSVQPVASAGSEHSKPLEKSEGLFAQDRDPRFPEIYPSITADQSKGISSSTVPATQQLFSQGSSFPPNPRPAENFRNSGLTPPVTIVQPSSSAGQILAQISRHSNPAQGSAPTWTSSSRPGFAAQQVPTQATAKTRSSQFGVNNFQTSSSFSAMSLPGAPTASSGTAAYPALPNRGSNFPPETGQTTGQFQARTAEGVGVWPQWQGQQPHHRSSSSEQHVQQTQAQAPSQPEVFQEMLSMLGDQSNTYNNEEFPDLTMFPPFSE

Structure (SMILES) | Fold @ 1 nM [fold] | Fold @ 100 nM [fold] | Fold @ 10 uM [fold] | Fold relative to benchmark @ 100 nM [fold]
COc1ccc(-c2nc3cc(Cl)ccc3n2C(=O)c2ccc(F)c(F)c2)c2ccccc12 [Compound 645] | 1 | 1 | 15 | 0.11
COC(=O)c1ccc2nc(-c3cccc4ccccc34)n(Cc3ccc(F)c(F)c3)c2c1 [Compound 1339] | 1 | 1 | 4 | 0.03
Cc1ccc(S(=O)(=O)n2c(-c3cccc4ccccc34)nc3ccc(Cl)cc32)cc1 [Compound 528, 6-chloro-2-(naphthalen-1-yl)-1-tosyl-1H-benzo[d]imidazole] | 1 | 19 | 35 | 0.48
Fc1ccc(-n2c(-c3cccc4ccccc34)nc3cc(Cl)ccc32)nc1 [Compound 854, 5-chloro-1-(5-fluoropyridin-2-yl)-2-(naphthalen-1-yl)-1H-benzo[d]imidazole] | 1 | 1 | 4 | 0.03
Cc1ccc(C(=O)n2c(-c3cccc4ccccc34)nc3ccc(Cl)cc32)cc1 [Compound 698] | 1 | 26 | 30 | 1
O=C(c1ccc(F)c(F)c1)n1c(-c2cccc(-c3ccccc3)c2)nc2cc(Cl)ccc21 [Compound 771] | 1 | 1 | 2 | 0.04
O=C(c1ccccc1)n1c(-c2cc3ccccc3o2)nc2ccc(Cl)cc21 [Compound 588] | 1 | 5 | 30 | 0.33
O=C(c1cnc2ccccc2c1)n1c(-c2cccc3ccccc23)nc2cc(Cl)ccc21 [Compound 855] | 1 | 33 | 44 | 1.14
CN1CCN(C(=O)c2ccc3c(c2)nc(-c2cccc4ccccc24)n3Cc2ccc(F)c(F)c2)CC1 [Compound 1364] | 1 | 1 | 3 | 0.03
O=C(c1ccc2nc(-c3cccc4ccccc34)n(S(=O)(=O)c3ccc4ccccc4c3)c2c1)N1CCOCC1 [Compound 1389] | 1 | 1 | 3 | 0.03
O=C(c1ccc(F)c(F)c1)n1c(-c2cccc(C(F)(F)F)c2Cl)nc2cc(Cl)ccc21 [Compound 875] | 1 | 3 | 48 | 0.06
COC(=O)c1ccc2c(c1)nc(-c1cccc3ccccc13)n2S(=O)(=O)c1ccc(C(F)(F)F)cc1 [Compound 1401] | 1 | 1 | 2 | 0.03
O=C(c1ccncc1)n1c(-c2ccccc2)nc2cc(Cl)ccc21 [Compound 432] | 1 | 1 | 7 | 0.03
N#Cc1ccc(S(=O)(=O)n2c(-c3cccc4ccccc34)nc3cc(C(=O)N4CCCCC4)ccc32)cc1 [Compound 1336] | 1 | 1 | 6 | 0.03
O=C(c1ccc2c(c1)nc(-c1cccc3ccccc13)n2S(=O)(=O)c1ccc(Cl)cc1)N1CCCCC1 [Compound 1366] | 1 | 1 | 10 | 0.03
O=C(c1ccc(F)c(F)c1)n1c(-c2cccc3ccccc23)nc2cc(F)ccc21 [Compound 630] | 1 | 5 | 9 | 0.56
O=C(c1ccc2nc(-c3cccc4ccccc34)n(Cc3ccc(F)c(F)c3)c2c1)N1CCOCC1 [Compound 1330] | 1 | 1 | 1 | 0.03
COC(=O)c1ccc2nc(-c3cccc4ccccc34)n(C(=O)c3ccc(OC(F)(F)F)cc3)c2c1 [Compound 1405] | 1 | 2 | 30 | 0.07

Structure (SMILES) | Fold @ 1 nM [fold] | Fold @ 100 nM [fold] | Fold @ 10 uM [fold] | Fold relative to benchmark @ 100 nM [fold]
COc1ccc(-c2nc3cc(Cl)ccc3n2C(=O)c2ccccc2)cc1 [Compound 496] | 1 | 1 | 3.5 | 0.03
O=C(c1ccc(F)c(F)c1)n1c(-c2ccc3ccccc3c2)nc2cc(Cl)ccc21 [Compound 684] | 1 | 2 | 56 | 0.08
O=C(c1ccccc1)n1c(-c2cccc3c2CCCC3)nc2ccc(Cl)cc21 [Compound 778] | 1 | 1 | 8 | 0.04
Fc1ccc(Cn2c(-c3cccc4ccccc34)nc3cc(Cl)ccc32)cc1F [Compound 887] | 1 | 1 | 14 | 0.02
COC(=O)c1ccc2nc(-c3cccc4ccccc34)n(S(=O)(=O)c3ccc(C(F)(F)F)cc3)c2c1 [Compound 1402] | 1 | 2 | 3 | 0.07
CN1CCN(C(=O)c2ccc3nc(-c4cccc5ccccc45)n(Cc4ccc(F)c(F)c4)c3c2)CC1 [Compound 1365] | 1 | 1 | 2 | 0.03
O=C(c1ccc2nc(-c3cccc4ccccc34)n(Cc3ccc(F)cc3)c2c1)N1CCOCC1 [Compound 1404] | 1 | 1 | 6 | 0.03
O=C(c1ccc2nc(-c3cccc4ccccc34)n(S(=O)(=O)c3ccc4ccccc4c3)c2c1)N1CCCCC1 [Compound 1341] | 1 | 1 | 5 | 0.03
Cc1ccc(S(=O)(=O)n2c(-c3cccc4ccccc34)nc3cc(F)ccc32)cc1 [Compound 631, 5-fluoro-2-(naphthalen-1-yl)-1-tosyl-1H-benzo[d]imidazole] | 1 | 1 | 7 | 0.11
COC(=O)c1ccc2nc(-c3cccc4ccccc34)n(S(=O)(=O)c3ccc4ccccc4c3)c2c1 [Compound 1384] | 1 | 2 | 13 | 0.07
COC(=O)c1ccc2nc(-c3cccc4ccccc34)n(S(=O)(=O)c3ccc(Cl)cc3)c2c1 [Compound 1386] | 1 | 2 | 6 | 0.07
Cc1ccc(S(=O)(=O)n2c(-c3cccc4ccccc34)nc3cc(Cl)ccc32)cc1 [Compound 527, 5-chloro-2-(naphthalen-1-yl)-1-tosyl-1H-benzo[d]imidazole] | 1 | 15 | 36 | 0.38
O=C(c1ccc2nc(-c3cccc4ccccc34)n(S(=O)(=O)c3ccc(Cl)cc3)c2c1)N1CCCCC1 [Compound 1367] | 1 | 1 | 3 | 0.03
COc1ccc(C(=O)n2c(-c3cccc4ccccc34)nc3ccc(Cl)cc32)cc1OC [Compound 683] | 1 | 26 | 34 | 1
COc1ccc(C(=O)n2c(-c3cccc(C(F)(F)F)c3)nc3ccc(Cl)cc32)cc1 [Compound 765] | 1 | 2 | 14 | 0.08
O=c1c2cccc3cccc(c32)c2nc3ccc(Cl)cc3n12 [Compound 363, 7-chloro-3,10-diazapentacyclo[10.7.1.0^2,10.0^4,9.0^16,20]icosa-1(19),2,4(9),5,7,12,14,16(20),17-nonaen-11-one] | 4 | 14 | 30 | 0.69
O=c1c2cccc3cccc(c32)c2nc3ccccc3n12 [Compound 523] | 1.8 | 11.5 | 12 | 0.82
